Data from patent publication US20100256214A1, “EPH RECEPTOR LIGANDS AND METHODS OF USE” (Burnham Institute for Medical Research, priority 2009, published 2010).
Where two headings read alike, the source gives them in different places.

What was measured:
EphA2 = EphA2 tyrosine phosphorylation in COS7 cells; format: cell-based; conditions: for tyrosine phosphorylation of endogenous EphA2: COS7 cells stimulated with ephrin-A1 Fc
Description: FIGS. 6A-6F. A. HT22 neuronal cells pretreated with the indicated concentrations of compounds 1 or 2 for 15 min were stimulated with 0.5 μg/mL ephrin-A5 Fc (+) or Fc as a control (−) for 20 min in the continued presence of the compounds. EphA4 immunoprecipitates were probed with anti-phosphotyrosine antibody (PTyr) and reprobed for EphA4. C indicates immunoprecipitations performed with control antibodies from non-immunized rabbits. […] Error bars represent the standard error from 4 experiments for compound 1 and 3 experiments for compound 2. […] C. COS7 cells pretreated with the indicated concentrations of compounds 1 or 2 for 15 min were stimulated with 0.1 μg/mL ephrin-A1 Fc or Fc as a control in the continued presence of the compounds. EphA2 immunoprecipitates were probed with anti-phosphotyrosine antibody (PTyr) and reprobed for EphA2. C indicates immunoprecipitations performed with control antibodies. […] Error bars represent the standard error from 2 experiments. Statistical analyses were performed as in (B). HUVE cells were left unstimulated or stimulated with TNFα for 2 hours in the presence of 400 μM compound 1. Duplicate untreated samples are shown. C indicates immunoprecipitations performed with control antibodies. EphA2 immunoprecipitates were probed with anti-phosphotyrosine antibody (PTyr) and reprobed for EphA2. Levels of EphA2 phosphorylation quantified from immunoblots and normalized to the amount of immunoprecipitated EphA2 were also performed. […] The same protocol described in (C) was used, except that COS7 cells were stimulated with 0.5 μg/mL of ephrin-B2 Fc and the EphB2 receptor was immunoprecipitated. F. COS7 cells pretreated with the indicated concentrations of compounds 1 or 2 were stimulated with EGF (+) or left unstimulated (−). Lysates were probed with anti-phosphotyrosine antibody (PTyr) and reprobed for the EGF receptor.
Measurement of Receptor Tyrosine Phosphorylation in Cells—HT22 neuronal cells, which endogenously express EphA4, are derived from immortalized mouse hippocampal neurons (Li et al. (1997) Neuron 19(2), 453-463). COST cells, which endogenously express EphA2, EphB2 and the EGF receptor (EGFR), were obtained from ATCC. Both cell lines were grown in Dulbecco's Modified Eagle's Medium (DMEM) (Mediatech, Inc, Herndon, Va.) with 10% fetal bovine serum (FBS) (Hyclone, Logan, Utah) and Pen/Strep. For EphA4 immunoprecipitations, HT22 cells were serum-starved overnight in 0.5% FBS in DMEM and incubated for 15 min with the compounds or DMSO as a control. The cells were then stimulated with 0.5 μg/mL ephrin-A5 Fc, ephrin-A4 Fc or Fc for 20 min in the continued presence of the compounds. […] The protein concentration was calculated using the BCA protein assay kit (Pierce Biotecnology, Rockford, Ill.). […]

EphA4 = EphA4 (Homo sapiens, UniProt P54764); experiment: ELISA, ephrin-A5 AP binding to immobilized EphA4 Fc; conditions: for IC50: read-out: IC50 for inhibition of ephrin-A5 AP binding to EphA4
Sequence of EphA4 (P54764 20-547 limits assumed, species assumed): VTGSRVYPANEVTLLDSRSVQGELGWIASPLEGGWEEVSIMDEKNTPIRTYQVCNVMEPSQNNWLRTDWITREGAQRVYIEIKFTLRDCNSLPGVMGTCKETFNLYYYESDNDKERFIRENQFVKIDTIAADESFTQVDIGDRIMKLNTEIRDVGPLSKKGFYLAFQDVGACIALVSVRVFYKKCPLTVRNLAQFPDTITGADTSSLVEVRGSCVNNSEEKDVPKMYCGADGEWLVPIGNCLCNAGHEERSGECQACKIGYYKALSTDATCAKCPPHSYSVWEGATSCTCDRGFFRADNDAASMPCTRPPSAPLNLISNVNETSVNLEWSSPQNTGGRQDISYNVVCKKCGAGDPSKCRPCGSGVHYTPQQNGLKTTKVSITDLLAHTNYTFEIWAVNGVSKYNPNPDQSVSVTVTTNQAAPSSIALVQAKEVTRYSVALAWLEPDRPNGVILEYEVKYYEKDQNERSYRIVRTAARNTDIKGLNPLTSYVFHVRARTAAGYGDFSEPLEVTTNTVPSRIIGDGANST
Description: ELISA Assays and K, Determination—Protein A-coated wells (Pierce Biotecnology, Rockford, Ill.) were used to immobilize ephrin Fc fusion proteins (R&D Systems, Minneapolis, Minn.). Compounds at different concentrations were incubated with EphA4 AP (Cheng and Flanagan, (1994) Cell 79(1), 157-168) or EphA2 AP (Koolpe et al. (2002) J Biol Chem 277(49), 46974-46979) for 3 hours. Alternatively, Eph receptor Fc fusion proteins were immobilized on protein A-coated wells and ephrin-A5 AP (Menzel et al. (2001) Developmental Biology 230(1), 74-88) or ephrin-B2 AP (GeneHunter, Nashville, Tenn.) were added with the compounds. The amount of bound AP-fusion protein was quantified using pNPP as the substrate. Alkaline phosphatase activity from wells with Fc only was subtracted as background. To confirm that the binding of the compounds to EphA4 was reversible, the compounds were removed and the wells were incubated in binding buffer for 3 hours before washing and incubating with ephrin AP fusion proteins. Under these conditions, no inhibition of ephrin binding was observed indicating the reversible binding of the compounds.
To calculate the inhibition constant (KO values, the binding of ephrin-A5 AP to EphA4 Fc immobilized on protein A-coated wells was measured in the absence and in the presence of the compounds at different concentrations. Each data set was fitted to the Michaelis-Menten equation: B=Bmax [S]/(KD+[S]), where [S] is the concentration of ephrin AP fusion protein and KD is the dissociation constant observed in the absence or in the presence of the compound, using non linear regression and the program GraphPad (Prism). To evaluate whether the inhibition is competitive, noncompetitive or uncompetitive the KD and Bmax values were determined at different compound concentrations. The Ki was obtained from the linear regression plot of KD/Bmax as a function of the concentration of the inhibitor according to: KD/Bmax=(KD[S])/(Ki·Bmax)+KD/Bmax. Alternatively, Ki values were obtained from the dose response curves, using the Cheng-Prusoff equation: Ki=IC50/(1+[S]/KD) (XX38, Cheng, Y., and Prusoff, W. H. (1973) Biochemical pharmacology 22(23), 3099-3108). Ephrin-A5 AP concentration were calculated from alkaline phosphatase activity (Flanagan et al. (2000) Methods in Enzymology. 327, 19-35).

EGF receptor = EGF receptor phosphorylation in COS7 cells; format: cell-based; conditions: COS7 cells stimulated with EGF
[1] = from ephrin-A5 AP binding curves at different compound concentrations, read-out: Ki, competitive inhibition of EphA4-ephrin-A5 binding
[2] = from other inhibition curves using different ephrin concentrations, read-out: Ki calculated with the Cheng-Prusoff equation, EphA4-ephrin-A5
[3] = from the inhibition curves shown in FIG. 2, read-out: Ki calculated with the Cheng-Prusoff equation, EphA4-ephrin-A5

SMILES	ephrin-dependent degradation of EphA2 (EphA2)	tyrosine phosphorylation of endogenous EphA2 (EphA2)	inhibition of EphA4-ephrin-A5 binding (in words) (EphA4)	reversibility of binding to EphA4 (EphA4; compounds removed, 3 hours in binding buffer before ephrin AP)	Ki (EphA4; [1])	Ki (EphA4; [2])	Ki (EphA4; [3])	IC50 (EphA4)	phosphorylation of the EGF receptor (EGF receptor)
Cc1ccc(C)n1-c1ccc(C(=O)O)c(O)c1 [compound 1, 4-(2,5-dimethyl-pyrrol-1-yl)-2-hydroxy-benzoic acid]	prevented	inhibited	inhibit	binds reversibly	8 µM	6 to 10 µM	10 µM	13 µM	did not inhibit
Cc1ccc(C)n1-c1ccc(O)c(C(=O)O)c1 [compound 2, 5-(2,5 dimethyl-pyrrol-1-yl)-2-hydroxy-benzoic acid]	prevented	inhibited	inhibit	–	7 µM	6 to 8 µM	6 µM	9 µM	did not inhibit
